Assays:
B16F10 cells = test: Melanin content in B16F10 cells after UV irradiation; assay type: cell-based, murine; conditions: 10 μM for 72 hrs prior to UV irradiation; UV alone 33.80±4.6% increase over non-UV cells (7.4±0.3 μg/mg protein)
Text: The dermal fibroblast cell line CG1639 was obtained from the BCRC (Bioresource Collection and Research Center) and cultured in Dulbecco's modified Eagle media (DMEM, Gibco by Invitrogen) with 1% antibiotic antimycotic (Gibco by Invitrogen) and 15% fetal bovine serum (Gibco by Invitrogen). The fetal rat skin keratinocyte, FRSK cell line was obtained from the Japan HSRRB (Health Science Research Resources Bank) and cultured in Eagle's minimal essential media (MEM, Gibco by Invitrogen) supplemented with 10% fetal bovine serum (FBS) (Gibco by Invitrogen) and 1% antibiotic antimycotic (Gibco by Invitrogen). B16F10 cells, a murine melanoma cell line, were purchased from American Type Culture Collection (ATCC, Rockville, Md., USA) and was cultured in Eagle's Minimum Essential Medium (MEM; Sigma, St. Louis, Mo.) supplemented with 10% fetal bovine serum (FBS; HyClone Lab. Inc., Logan, Utah), 0.02% antibiotic-antimycotic liquid (penicillin, 10 000 U mL^−1; streptomycin, 10 000 μg mL^−1 and amphotericin B, 25 μg mL^−1; Invitrogen, Carlsbad, Calif.).
To investigate the induction of melanogenesis and the oxidative stress by direct UV irradiation, melanoma cells and keratocytes were irradiated with 8 J cm^−2 of UVA (FL15BLB, 352 nm, 15 W; Toshiba, Tokyo, Japan) and 10 mJ cm^−2 of UVB (G15T8E, 306 nm, 15 W; Sankyo Denki, Tokyo, Japan) in a HANKS' balanced salt solution (Sigma). The UV intensity was measured by using a Model UVX Digital Radiometer (UVP Inc., Upland, Calif.).
B16F10 and FRSK cells were exposed to Hepasim compounds A-D by two different concentrations (3 or 10 μM) for 72 hrs prior to UVA irradiation. DMEM was replaced with phosphate buffered saline (PBS) to avoid generation of medium-derived toxic photoproducts prior to UV irradiation. Cells were collected 24 hrs after UVA irradiation and assayed. For preparation of cell lysate, the harvested cells were pelleted by centrifugation and lysed in lysis buffer containing 50 mM Tris-HCl, 10 mM ethylene diaminetetraacetic acid (EDTA), 1% (v/v) Tri-ton X-100, phenylmethylsulfonyl fluoride (PMSF) (100 mg/ml) and pepstatin A (1 mg/ml) in DMSO and leupeptin (1 mg/ml) in H2O, pH 6.8. The cells were centrifuged at 10,000 rpm for 10 min and the total cell lysate was collected and stored at −80° C.
In order to measure the melanin contents, B16F10 cells were sonicated on ice and the mixture was centrifuged (25 000 g, 10 min, 4° C.). The supernatant was transferred, and pellets were dissolved in 0.85 N KOH at 60° C. for 20 min. Standard melanin (Sigma) was incubated in parallel. Spectrophotometric analysis of melanin content was then performed at an absorbance of 405 nm

[1] = tested on: CuZnSOD, MnSOD, Catalase, Glutathione peroxidase, NADPH oxidase; test: Real-time RT-PCR of oxidative stress genes (anti-oxidant enzymes, NADPH oxidase) in liver of cirrhotic animals; assay type: in vivo, Wistar rats; conditions: compound B 7 mg/kg, compound C 14 mg/kg, ACM 320 mg/kg
Method: Sample tissues of rat livers were measured about 0.5×0.5 cm in area. Each of tissue was homogenized in 1 mL of TRIzol buffer (Invitrogen, Carlsbad, Calif., USA) with a motorized pestle, and then mixed with 0.5 mL chloroform/isoamyl alcohol (24:1), and was centrifuged at 12,000×g for 10 min at 4° C. The supernatant was transferred to a fresh tube, and isopropanol was added, mix well and stored at −80° C. overnight. The reaction mixture was centrifuged at 12,000×g for 30 min at 4° C. to produce a rude RNA pallet, the pellet was washed with 70% ethanol and air-dried. The concentrations of total RNA were measured by absorbance at 260 nm using a NanoDrop ND-1000 (NanoDrop, USA). Reverse transcription reaction was performed using a commercially available set of High Capacity RNA-to-cDNA Kit (Applied Biosystems, USA). cDNA was prepared from 2 μg of total RNA per 20 μl reaction, according to the manufacturer's instructions—37° C. for 60 minutes, 95° C. for 5 minutes, and hold at 4° C. The resulting cDNA was to a final concentration of 100 ng/μl and constituted a matrix in further experiments. Amplification and detection the gene expression by real-time PCR were performed using StepOne plus Real-time PCR System (Applied Biosystems, USA). Samples were assayed in a 10 μl reaction mixture containing 2 μl of template DNA, 5 μl of 2× TaqMan PCR Master Mix (Applied Biosystems, Life Technologies, Foster City, Calif., USA), 0.5 μl of 20× assay mix containing probe, forward and reverse primer (Applied Biosystems, Life Technologies, Foster City, Calif., USA), whereby qPCR targets with the following information were used: (a) Rat α-SMA, Assay ID Rn01759928_g1, (b) Rat TIMP, Assay ID Rn00587558_m1, (c) Rat TGF-β1, Assay ID Rn00572010_m1, (d) Rat Collagen I, Assay ID Rn 01463838_m1, (e) Rat CuZnSOD, Assay ID Rn00566938_m1, (f) Rat MnSOD, Assay ID Rn00690587_g1, (g) Rat Catalase, Assay ID Rn00560930_m1, (h) Rat Glutathione peroxidase, Assay ID Rn00577994_g1, (i) Rat NADPH oxidase, Assay ID Rn00585380_m1 and (j) Rat GAPDH, Assay ID Rn1462662_g1. To control variation in mRNA concentration, all results were normalized to the housekeeping gene, GAPDH. Relative quantitation was performed using the comparative ΔΔCt method according to the manufacture's instructions. The cycling conditions used were as follows: 50° C. for 2 min, 95° C. for 10 min followed by 40 cycles of 95° C. for 15 s and 60° C. for 1 min each.

SMILES | melanin production in UV-irradiated B16F10 cells (B16F10 cells) [%] | Catalase gene expression in liver [1] | CuZnSOD gene expression in liver [1] | Glutathione peroxidase gene expression in liver [1] | MnSOD gene expression in liver [1] | NADPH oxidase gene expression in liver [1]
CC(C)=CCOc1ccc(C2=C(CC(C)C)C(=O)NC2=O)cc1 [Compound B, 3-isobutyl-4-[4-(3-methyl-2-butenyloxy)phenyl]-1H-pyrrol-2,5-dione] | 29.40±4.3 | up-regulated significantly | up-regulated significantly | up-regulated significantly | up-regulated significantly | down-regulated significantly
CC(C)=CCOc1ccc(C2=C(CC(C)C)C(=O)N(O)C2=O)cc1 [Compound C, 3-isobutyl-4-[4-(3-methyl-2-butenyloxy)phenyl]-1H-pyrrol-1-ol-2,5-dione] | 28.92±5.3 | up-regulated significantly | up-regulated significantly | up-regulated significantly | up-regulated significantly | down-regulated significantly

From US9572760B2, “Uses of compounds and mixtures from Antrodia cinnamomea mycelia” (Simpson Biotech Co., Ltd., priority 2013, dated 2017)
